From US6410553B1, “Benzosulfones and related compositions and methods” (Ortho-McNeil Pharmaceutical, Inc., priority 2000, dated 2002)

Target: T1, calcium channel (3H-nitrendipine binding, rabbit heart membranes) (Oryctolagus cuniculus, UniProt P15381)
T1 construct: from tissue; host or cells: rabbit heart (crude membrane pellet)
Assay: Assay for Inhibition of Nitrendipine Binding
Details: 3H-nitrendipine (0.05-0.50 nM), 90 minutes at 4° C.
Description: Assay for Inhibition of Nitrendipine Binding
Female, New Zealand white rabbits (1-2 kg) are sacrificed by cervical dislocation, and the heart is immediately removed, cleaned and chopped into small pieces. The tissue is homogenized in 5×times volume of 0.05M Hepes buffer, pH 7.4. The homogenate is centrifuged at 4000 g for 10 minutes, and the supernatant is re-centrifuged at 42,000×g for 90 minutes. The resulting membrane pellet is resuspended (0.7 ml/g weight) in 0.05M Hepes, pH 7.4 and stored at […] until used. Each tube of the binding assay contains ^3H-nitrendipine (0.05-0.50 nM), buffer, membranes (0.10 ml), and test compound in a total volume of 1.0 ml. After 90 minutes at 4° C., the bound nitrendipine is separated from the unbound by filtration on Whatman GF/C filters. After rinsing, the filters are dried and counted in a liquid scintillation counter.
Non-specific binding of ^3H-nitrendipine (that amount bound in the presence of excess unlabelled nitrendipine) is subtracted from the total bound to obtain specifically bound radiolabeled nitrendipine. The amount of specifically bound nitrendipine in the presence of a test compound is compared to that amount bound in the absence of a compound. A percent displacement (or inhibition) can then be calculated.

T1 sequence (P15381 whole entry, other chains not shown): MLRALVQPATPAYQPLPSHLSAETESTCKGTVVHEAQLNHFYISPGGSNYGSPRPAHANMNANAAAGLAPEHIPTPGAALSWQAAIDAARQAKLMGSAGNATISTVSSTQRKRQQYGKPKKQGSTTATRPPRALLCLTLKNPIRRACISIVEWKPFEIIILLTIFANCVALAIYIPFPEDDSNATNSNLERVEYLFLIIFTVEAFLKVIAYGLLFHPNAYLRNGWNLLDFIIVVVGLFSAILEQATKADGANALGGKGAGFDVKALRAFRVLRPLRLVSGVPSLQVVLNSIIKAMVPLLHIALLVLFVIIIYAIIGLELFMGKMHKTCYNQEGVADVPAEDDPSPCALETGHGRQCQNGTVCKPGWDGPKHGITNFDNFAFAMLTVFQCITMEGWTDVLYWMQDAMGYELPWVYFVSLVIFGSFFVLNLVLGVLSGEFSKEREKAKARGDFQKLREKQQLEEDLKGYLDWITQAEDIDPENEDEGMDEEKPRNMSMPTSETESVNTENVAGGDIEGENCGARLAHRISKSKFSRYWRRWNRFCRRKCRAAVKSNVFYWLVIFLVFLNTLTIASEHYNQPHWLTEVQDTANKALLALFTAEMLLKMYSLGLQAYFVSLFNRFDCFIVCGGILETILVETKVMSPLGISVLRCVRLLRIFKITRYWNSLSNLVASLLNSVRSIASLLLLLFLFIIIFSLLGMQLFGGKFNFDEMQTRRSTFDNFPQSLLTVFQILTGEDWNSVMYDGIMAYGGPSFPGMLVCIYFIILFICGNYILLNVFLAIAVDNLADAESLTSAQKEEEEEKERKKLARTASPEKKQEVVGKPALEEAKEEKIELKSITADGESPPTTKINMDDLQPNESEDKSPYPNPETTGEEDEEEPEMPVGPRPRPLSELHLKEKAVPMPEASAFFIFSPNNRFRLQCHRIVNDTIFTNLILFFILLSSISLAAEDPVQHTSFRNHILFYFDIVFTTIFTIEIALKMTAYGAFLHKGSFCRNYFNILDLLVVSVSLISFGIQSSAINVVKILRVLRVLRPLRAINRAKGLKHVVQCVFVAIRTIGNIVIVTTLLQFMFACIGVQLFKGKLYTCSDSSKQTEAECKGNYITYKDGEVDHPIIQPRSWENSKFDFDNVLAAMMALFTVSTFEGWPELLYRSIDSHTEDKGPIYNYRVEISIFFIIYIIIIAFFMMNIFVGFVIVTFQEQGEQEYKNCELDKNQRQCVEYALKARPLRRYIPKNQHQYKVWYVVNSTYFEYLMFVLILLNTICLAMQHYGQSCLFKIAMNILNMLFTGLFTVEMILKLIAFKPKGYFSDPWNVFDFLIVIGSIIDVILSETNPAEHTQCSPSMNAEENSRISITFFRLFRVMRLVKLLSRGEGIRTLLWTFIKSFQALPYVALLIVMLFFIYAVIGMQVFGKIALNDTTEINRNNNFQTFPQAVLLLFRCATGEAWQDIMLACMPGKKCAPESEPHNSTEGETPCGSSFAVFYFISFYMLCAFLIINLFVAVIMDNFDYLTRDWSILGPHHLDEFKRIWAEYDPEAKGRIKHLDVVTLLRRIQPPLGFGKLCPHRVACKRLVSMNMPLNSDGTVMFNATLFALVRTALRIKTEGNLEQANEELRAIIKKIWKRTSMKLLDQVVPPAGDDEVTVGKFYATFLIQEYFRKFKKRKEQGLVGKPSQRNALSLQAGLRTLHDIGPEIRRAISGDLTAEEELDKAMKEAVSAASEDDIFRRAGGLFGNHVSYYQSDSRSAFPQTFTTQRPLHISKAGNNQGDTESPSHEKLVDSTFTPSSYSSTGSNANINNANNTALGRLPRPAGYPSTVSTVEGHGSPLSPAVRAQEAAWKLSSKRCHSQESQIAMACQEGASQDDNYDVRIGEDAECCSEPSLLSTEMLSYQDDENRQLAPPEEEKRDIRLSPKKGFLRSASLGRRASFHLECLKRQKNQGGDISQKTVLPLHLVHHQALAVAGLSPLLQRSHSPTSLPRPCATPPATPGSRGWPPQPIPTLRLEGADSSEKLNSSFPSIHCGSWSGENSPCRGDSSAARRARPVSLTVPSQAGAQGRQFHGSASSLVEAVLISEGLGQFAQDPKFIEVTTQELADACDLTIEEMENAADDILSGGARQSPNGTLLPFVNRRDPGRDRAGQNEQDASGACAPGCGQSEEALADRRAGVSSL
T1 sequence (P13806 27-960 partner limits assumed, other chains not shown): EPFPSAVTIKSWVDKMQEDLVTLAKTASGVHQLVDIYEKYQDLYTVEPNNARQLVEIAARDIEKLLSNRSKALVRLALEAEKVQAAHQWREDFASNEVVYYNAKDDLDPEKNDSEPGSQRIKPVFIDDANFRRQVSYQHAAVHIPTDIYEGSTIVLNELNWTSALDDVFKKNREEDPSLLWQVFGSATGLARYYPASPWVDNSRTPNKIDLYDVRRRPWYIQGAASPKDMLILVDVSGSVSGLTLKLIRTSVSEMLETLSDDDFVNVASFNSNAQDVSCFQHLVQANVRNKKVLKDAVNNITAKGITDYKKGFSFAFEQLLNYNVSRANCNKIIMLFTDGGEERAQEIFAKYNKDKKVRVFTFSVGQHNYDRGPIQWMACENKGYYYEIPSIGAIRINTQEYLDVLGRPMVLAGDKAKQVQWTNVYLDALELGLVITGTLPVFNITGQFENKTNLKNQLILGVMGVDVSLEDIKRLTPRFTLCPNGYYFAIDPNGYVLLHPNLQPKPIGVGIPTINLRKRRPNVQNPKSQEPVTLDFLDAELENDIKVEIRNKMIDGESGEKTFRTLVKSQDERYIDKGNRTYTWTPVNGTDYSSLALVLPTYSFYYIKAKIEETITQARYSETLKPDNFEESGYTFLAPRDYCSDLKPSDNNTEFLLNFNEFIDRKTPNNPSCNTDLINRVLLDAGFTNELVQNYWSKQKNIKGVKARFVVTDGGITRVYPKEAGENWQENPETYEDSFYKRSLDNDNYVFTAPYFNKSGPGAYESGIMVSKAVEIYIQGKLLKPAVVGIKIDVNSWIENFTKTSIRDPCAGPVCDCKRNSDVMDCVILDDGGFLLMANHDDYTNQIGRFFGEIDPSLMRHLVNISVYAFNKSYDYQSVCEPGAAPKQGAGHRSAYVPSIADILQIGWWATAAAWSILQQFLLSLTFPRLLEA
T1 sequence (P13806 961-1106 partner limits assumed, other chains not shown): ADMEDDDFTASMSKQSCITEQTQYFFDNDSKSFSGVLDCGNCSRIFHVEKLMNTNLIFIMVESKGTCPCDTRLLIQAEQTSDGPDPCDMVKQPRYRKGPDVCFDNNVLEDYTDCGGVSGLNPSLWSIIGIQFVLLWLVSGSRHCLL

Compound | IC50
COC(=O)C1=C(C)NC2=C(C1c1cccc([N+](=O)[O-])c1)S(=O)(=O)CCc1ccccc12 (centres unmarked) [Compound 8, [3]Benzothiepino[1,2-b]pyridine-3-carboxylic acid, 1,4,6,7-tetrahydro-2-methyl-4-(3-nitrophenyl)-, methyl ester, 5,5-dioxide] | 261 nM
COC(=O)C1=C(C)NC2=C(C1c1cccc(Cl)c1)S(=O)(=O)CCc1ccccc12 (centres unmarked) [Compound 6, [3]Benzothiepino[1,2-b]pyridine-3-carboxylic acid, 4-(3-chlorophenyl)-1,4,6,7-tetrahydro-2-methyl-, methyl ester, 5,5-dioxide] | 337 nM
COC(=O)C1=C(C)NC2=C(C1c1cccc(Cl)c1Cl)S(=O)(=O)CCc1ccccc12 (centres unmarked) [Compound 3, [3]Benzothiepino[1,2-b]pyridine-3-carboxylic acid, 4-(2,3-dichlorophenyl)-1,4,6,7-tetrahydro-2-methyl-, methyl ester, 5,5-dioxide] | 38 nM
COC(=O)C1=C(C)NC2=C(C1c1c(F)c(F)c(F)c(F)c1F)S(=O)(=O)CCc1ccccc12 (centres unmarked) [Compound 4, [3]Benzothiepino[1,2-b]pyridine-3-carboxylic acid, 1,4,6,7-tetrahydro-2-methyl-4-(pentafluorophenyl)-, methyl ester, 5,5-dioxide] | 261 nM
CC1=C(C(=O)OCCN(C)Cc2ccccc2)C(c2cccc(Cl)c2Cl)C2=C(N1)c1ccccc1CCS2(=O)=O (centres unmarked) [Compound 2, [3]Benzothiepino[1,2-b]pyridine-3-carboxylic acid, 4-(2,3-dichlorophenyl)-1,4,6,7-tetrahydro-2-methyl-, 2-[methyl(phenylmethyl)amino]ethyl ester, 5,5-dioxide] | 118 nM
COC(=O)C1=C(C)NC2=C(C1c1ccccc1[N+](=O)[O-])S(=O)(=O)CCc1ccccc12 (centres unmarked) [Compound 5, [3]Benzothiepino[1,2-b]pyridine-3-carboxylic acid, 1,4,6,7-tetrahydro-2-methyl-4-(2-nitrophenyl)-, methyl ester, 5,5-dioxide] | 1900 nM

The remaining lines, values ahead:

IC50 | Compound
99 nM | CC1=C(C(=O)OCCN(C)Cc2cccs2)C(c2ccccc2Cl)C2=C(N1)c1ccccc1CCS2(=O)=O (centres unmarked) [Compound 10, [3]Benzothiepino[1,2-b]pyridine-3-carboxylic acid, 4-(2-chlorophenyl)-1,4,6,7-tetrahydro-2-methyl-, 2-[methyl(2-thienylmethyl)amino]ethyl ester, 5,5-dioxide]
1300 nM | COC(=O)C1=C(C)NC2=C(C1c1c(O)cccc1Cl)S(=O)(=O)CCc1ccccc12 (centres unmarked) [Compound 9, [3]Benzothiepino[1,2-b]pyridine-3-carboxylic acid, 4-(2-chloro-6-hydroxyphenyl)-1,4,6,7-tetrahydro-2-methyl-, methyl ester, 5,5-dioxide]
38 nM | CC1=C(C(=O)OCCN(C)Cc2cccs2)C(c2cccc(Cl)c2Cl)C2=C(N1)c1ccccc1CCS2(=O)=O (centres unmarked) [Compound 7, [3]Benzothiepino[1,2-b]pyridine-3-carboxylic acid, 4-(2,3-dichlorophenyl)-1,4,6,7-tetrahydro-2-methyl-, 2-[methyl(2-thienylmethyl)amino]ethyl ester, 5,5-dioxide]
612 nM | COC(=O)C1=C(C)NC2=C(C1c1ccccc1Cl)S(=O)(=O)CCc1ccccc12 (centres unmarked) [Compound 1, [3]Benzothiepino[1,2-b]pyridine-3-carboxylic acid, 4-(2-chlorophenyl)-1,4,6,7-tetrahydro-2-methyl-, methyl ester, 5,5-dioxide]
453 nM | CC1=C(C(=O)OCCN(C)Cc2ccccc2)C(c2ccccc2Cl)C2=C(N1)c1ccccc1CCS2(=O)=O (centres unmarked) [Compound 11, [3]Benzothiepino[1,2-b]pyridine-3-carboxylic acid, 4-(2-chlorophenyl)-1,4,6,7-tetrahydro-2-methyl-, 2-[methyl(phenylmethyl)amino]ethyl ester, 5,5-dioxide]
